Laboratory results: article PMC4379580 (Viruses, 2015)

How the values were obtained:
WT-His-P9-1 [1] = target: T1, WT-His-P9-1 (Southern rice black-streaked dwarf virus, UniProt B2LHU4); assay: intrinsic fluorescence quenching titration; assay type: binding; details: 298 K, pH 7.4, 20 μM protein, excitation 275 nm, Hill equation
T1 construct: protein encoded by first ORF of segment S9 (P9)

TR-ΔN6-His-P9-1 = TR-ΔN6-His-P9-1 (Southern rice black-streaked dwarf virus, UniProt B2LHU4); details: 298 K, 20 μM protein, excitation 275 nm, Hill equation
TR-ΔC23-His-P9-1 = TR-ΔC23-His-P9-1 (Southern rice black-streaked dwarf virus, UniProt B2LHU4); details: 298 K, 20 μM protein, excitation 275 nm, Hill equation
WT-His-P9-1 [2] = target: WT-His-P9-1 (Southern rice black-streaked dwarf virus, UniProt B2LHU4, S138T); assay: biochemical

Q: What does the source list for CCOP(=O)(OCC)C(Nc1nc2c(C)cccc2s1)c1ccccc1F (stereo not shown) [DFL, dufulin]?
A: Binding parameters / KA (M^-1) (WT-His-P9-1 [1]): 1 × 10^5.061; Binding parameters / KA (M^-1) (TR-ΔN6-His-P9-1): 1 × 10^6.421; Binding parameters / KA (M^-1) (TR-ΔC23-His-P9-1): 1 × 10^4.470; Kd (WT-His-P9-1 [2]): 9.73 µM
